From US9840528B2, “Thione-platinum(II) complexes and pharmaceutical compositions thereof” (priority 2015, dated 2017) come the findings set out here.

“Also recorded” adds a separate entry of the source.

The test system of data set [1] is MCF7 (human breast cancer) cell line. In words: MTT assay, in vitro cytotoxicity against MCF7. Particulars: MCF7 cells; for in vitro cytotoxicity in comparison, MCF7: compared with cisplatin or each other; for IC50: MTT, 24 h exposure, read-out: IC50 ± SEM MCF7. The class given is cell-based. On the procedure:
(§1) Monim-ul-Mehboob, A. A. Isab, V. Dhuna, G. Bhatia, K. Dhuna and S. Altuwaijri, New J. Chem., 39 (2015) 377-incorporated herein by reference in its entirety]. The cells were seeded at 3×10^3 cells/well in 100 μL DMEM containing 10% Fetal Bovine Serum (FBS) in 96-well tissue culture plate and incubated for 72 h at 37° C., 5% CO2, in air and 90% relative humidity in CO2 incubator. […] The medium of wells was discarded and 100 μL DMEM containing MTT (0.5 mg/ml) was added to the wells and incubated in CO2 incubator at 37° C. in dark for 4 h. After incubation, a purple colored formazan produced in the cells appeared as dark crystals in the bottom of the wells. The culture medium was discarded from each well carefully to prevent disruption of monolayer and 100 μL of dimethyl sulfoxide (DMSO) was added in each well. The solution in the wells was thoroughly mixed to dissolve the formazan crystals which produce a purple solution. The absorbance of the 96 well-plates was taken at 570 nm with Labsystems Multiskan EX ELISA reader against a reagent blank. […] The MTT assay was performed in three independent experiments, each in triplicate. […] A549 (human lung carcinoma), MCF7 (human breast cancer), HCT15 (human colon adenocarcinoma), and HeLa (human cervical cancer) cell lines. […] This cytotoxic effect was obtained by the stipulated increase in the concentrations of the complexes and cisplatin against fixed number of human cancer cells. The IC50 concentration of the complexes and Cisplatin for different human cell lines was obtained from curves between the complexes concentration and percentage viability of the cells.

Data set [2] relates to A549 (human lung carcinoma) cell line. The experiment in a line: MTT assay, in vitro cytotoxicity against A549. The class given is cell-based. Particulars: A549 cells; for in vitro cytotoxicity in comparison, A549: compared with cisplatin, carboplatin or each other; for IC50: MTT, 24 h exposure, read-out: IC50 ± SEM A549. Here is the method: as §1
For orientation: Formazan colour is commonly taken as a measure of viable cells.

Data set [3] concerns HCT15 (human colon adenocarcinoma) cell line. In words: MTT assay, in vitro cytotoxicity against HCT15. The class given is cell-based. Particulars: HCT15 cells; for IC50: MTT, 24 h exposure, read-out: IC50 ± SEM HCT15. Here is the method: as §1
Data set [4] relates to HeLa (human cervical cancer) cell line. The experiment in a line: MTT assay, in vitro cytotoxicity against HeLa. It counts as cell-based. Particulars: 24 h exposure, HeLa cells, read-out: IC50 ± SEM HeLa. Here is the method:
as §1

The nature of data set [5]: Stability in DMSO-d6 by time dependent 1H NMR. The class given is physicochemical. Particulars: spectra after 1, 6, 12, 24, 48 and 72 h. On the procedure:
Complexes (1), (5) and (6) were dissolved in DMSO-d6 and their ^1H NMR spectra were measured. The extent of decomposition over time was determined by comparing the NMR spectra collected after 1, 6, 12, 24, 48 and 72 h.

Data set [6] can be described thus: Solubility in organic solvents. The class given is physicochemical.

A word on the IC50: it is the concentration that inhibits the measured activity by half. Take `CC(C)N1CCNC1=S.CC(C)N1CCNC1=S.CC(C)N1CCNC1=S.CC(C)N1CCNC1=S.[Cl-].[Cl-].[Pt+2]` [Complex (4), Tetrakis(1-isopropylimidazolidine-2-thione)platinum(II)]: the “in vitro cytotoxicity in comparison, MCF7” value (“in vitro cytotoxicity … MCF7” for short) in data set [1] was “very similar cytotoxic data and efficacy”. Besides, the half-maximal inhibitory concentration (IC50) in data set [1] came out at 78.1 ± 1.45 µM; in data set [2], 85.7 ± 1.35 µM; in data set [3], 122 ± 1.75 µM; in data set [4], 95.44 ± 0.88 µM. Moreover, in data set [2], the “in vitro cytotoxicity in comparison, A549” value (“in vitro cytotoxicity … A549” for short) is listed as “almost equal cytotoxicity”.

As for `CC(C)N1CCNC1=S.CC(C)N1CCNC1=S.CC(C)N1CCNC1=S.CC(C)N1CCNC1=S.O=[N+]([O-])[O-].O=[N+]([O-])[O-].[Pt+2]` [Complex (7), Tetrakis(1-isopropylimidazolidine-2-thione)platinum(II)], the “in vitro cytotoxicity … MCF7” value in data set [1] is “very similar cytotoxic data and efficacy”. Besides, the 50% inhibitory concentration (IC50) is 74.4 ± 1.28 µM in data set [1], 84.2 ± 1.09 µM in data set [2], 116 ± 2.09 µM in data set [3] and 99.9 ± 2.25 µM in data set [4]. For the same molecule, the “in vitro cytotoxicity … A549” value in data set [2] is listed as “almost equal cytotoxicity”.

As to `CCN1CCCNC1=S.CCN1CCCNC1=S.CCN1CCCNC1=S.CCN1CCCNC1=S.[Pt+2]` [Complex (5), Tetrakis[1-ethyltetrahydropyrimidine-2(1H)-thione]platinum(II)], the 50% inhibitory concentration (IC50) is 95 ± 2.02 µM in data set [1], 137 ± 1.77 µM in data set [2], 159 ± 2.9 µM in data set [3] and 166 ± 2.01 µM in data set [4].

Take `S=C1NCCCCN1.S=C1NCCCCN1.S=C1NCCCCN1.S=C1NCCCCN1.[Cl-].[Cl-].[Pt+2]` [Complex (6), Tetrakis(1,3-diazepane-2-thione)platinum(II)]: the IC50 in data set [1] is 121 ± 3.36 µM; in data set [2], 119 ± 2.25 µM; in data set [3], 108 ± 2.03 µM; in data set [4], 92.5 ± 2.45 µM.

Consider `CCCN1CCNC1=S.CCCN1CCNC1=S.CCCN1CCNC1=S.CCCN1CCNC1=S.[Cl-].[Cl-].[Pt+2]` [Complex (3), Tetrakis(1-propylimidazolidine-2-thione)platinum(II)], for which the IC50 in data set [1] is 62.9 ± 1.51 µM; in data set [2] it was 59.2 ± 2.6 µM; in data set [3], 95.6 ± 2.14 µM; in data set [4], 133 ± 1.97 µM. In data set [2], the “in vitro cytotoxicity … A549” value was “in between cisplatin and carboplatin”.

As usually defined, the IC80 is the point of the concentration-response curve where the effect stands at 80%. Higher therefore signals a need for much substance. As for `N.N.[Cl][Pt][Cl]` [Cisplatin, cisplatin, reference compound], it took 21.3 µM to reach the 80% level in data set [1] (IC80). For the same molecule, the IC50 was determined as 21.3 ± 1.54 µM in data set [1], 36.9 ± 1.88 µM in data set [2], 26.6 ± 1.07 µM in data set [3] and 18.1 ± 1.36 µM in data set [4].

As to `CCN1CCNC1=S.CCN1CCNC1=S.CCN1CCNC1=S.CCN1CCNC1=S.[Cl-].[Cl-].[Pt+2]` [Complex (2), Tetrakis(1-ethylimidazolidine-2-thione)platinum(II)], in data set [1], it took 11.4 µM to reach the 80% level (IC80); the “in vitro cytotoxicity … MCF7” value is listed as “two-fold better cytotoxic agent against the MCF7 cell line than cisplatin; also recorded: two-fold better as a cytotoxic agent than cisplatin”; the IC50 turned out to be 11.4 ± 1.34 µM. In data set [2], the “in vitro cytotoxicity … A549” value was “comparable to that of cisplatin; also recorded: almost two times better than that of carboplatin” and the half-inhibitory concentration (IC50) came out at 37.1 ± 1.23 µM. Also, the “in vitro cytotoxic efficacy in comparison, HCT15” value in data set [3] (compared with cisplatin and carboplatin) is “lies in between cisplatin's and carboplatin's”. Besides, the concentration for half-maximal inhibition (IC50) in data set [3] came to 41.6 ± 1.53 µM. Also, the “change in chemical shifts and splitting patterns in time dependent 1H NMR spectra (extent of decomposition)” value in data set [5] was “No significant change”. Besides, the concentration for half-maximal inhibition (IC50) in data set [4] stood at 79.2 ± 1.95 µM.

For `CN1CCNC1=S.CN1CCNC1=S.CN1CCNC1=S.CN1CCNC1=S.O.O.[Cl-].[Cl-].[Pt+2]` [Complex (1), Tetrakis(1-methylimidazolidine-2-thione)platinum(II)], the “in vitro cytotoxicity … MCF7” value in data set [1] was “very similar cytotoxic data and efficacy”. Also, the IC50 was determined as 74.6 ± 1.54 µM in data set [1], 55.5 ± 1.08 µM in data set [2], 147 ± 1.77 µM in data set [3] and 142 ± 2.42 µM in data set [4]. Also, in data set [2], the “in vitro cytotoxicity … A549” value is “in between cisplatin and carboplatin”. Also, in data set [6] (CDCl3), the “solubility in CDCl3” value is “moderately soluble”. Besides, the “solubility in DMSO and DMF” value in data set [6] (DMSO and DMF) was “completely soluble”. Also, in data set [5], the “change in chemical shifts and splitting patterns in time dependent 1H NMR spectra (extent of decomposition)” value was “No significant change”.

Regarding `N.N.O=C([O-])C1(C(=O)[O-])CCC1.[Pt+2]` [Carboplatin, carboplatin, reference compound], the 50% inhibitory concentration (IC50) is 53.2 ± 1.65 µM in data set [1], 70.2 ± 1.7 µM in data set [2], 63.3 ± 1.58 µM in data set [3] and 55 ± 0.94 µM in data set [4].
